{"source": "ChEMBL document CHEMBL1128757", "about": "“Linear peptide ETA antagonists: rational design and practical derivatization of N-terminal amino- and imino-carbonylated tripeptide derivatives” (Bioorg Med Chem Lett, 1995)", "key": {"Endothelin-1 receptor [1]": {"biological_target": "T1, Endothelin-1 receptor (Sus scrofa, UniProt Q29010)", "T1 sequence (Q29010 whole entry)": "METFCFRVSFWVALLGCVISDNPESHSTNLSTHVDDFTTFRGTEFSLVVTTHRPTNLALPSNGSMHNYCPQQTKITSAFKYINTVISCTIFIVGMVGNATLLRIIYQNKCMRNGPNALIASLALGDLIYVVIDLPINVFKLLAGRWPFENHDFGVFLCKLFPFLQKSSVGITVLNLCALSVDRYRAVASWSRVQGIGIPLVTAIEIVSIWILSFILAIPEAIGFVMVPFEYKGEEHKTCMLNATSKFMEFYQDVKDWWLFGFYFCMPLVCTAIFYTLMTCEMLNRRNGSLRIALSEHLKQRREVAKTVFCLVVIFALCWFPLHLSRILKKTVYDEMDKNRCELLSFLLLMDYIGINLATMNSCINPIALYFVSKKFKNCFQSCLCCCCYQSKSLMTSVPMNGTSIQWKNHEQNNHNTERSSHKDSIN", "experiment": "Binding affinity against ETA receptor in porcine aortic smooth muscle membrane was determined"}, "Endothelin-1 receptor [2]": {"biological_target": "T1, Endothelin-1 receptor", "experiment": "Binding affinity against ETA receptor in porcine aortic smooth muscle membrane"}, "Endothelin-1 receptor [3]": {"biological_target": "T1, Endothelin-1 receptor", "experiment": "Binding affinity determined against ETA receptor in porcine aortic smooth muscle membrane"}, "Endothelin-1 receptor [4]": {"biological_target": "T1, Endothelin-1 receptor", "experiment": "Antagonistic activity towards ET- l-induced contraction in porcine coronary arteries", "type": "functional", "conditions": "read-out: pA2 (converted)"}}, "note": "pIC50: −log10 of the molar value."}
{"smiles": "CC(C)CC(=O)N[C@@H](CC(C)C)C(=O)N[C@H](Cc1c[nH]c2ccccc12)C(=O)N[C@H](CC(=O)O)C(=O)O", "values": [{"measurement": "pIC50", "setting": "Endothelin-1 receptor [1]", "result": 4.60}]}
{"smiles": "CC(C)C[C@H](NC(=O)[C@H](N)C(C)C)C(=O)N[C@H](Cc1c[nH]c2ccccc12)C(=O)N[C@H](CC(=O)O)C(=O)O", "values": [{"measurement": "pIC50", "setting": "Endothelin-1 receptor [1]", "result": 4.49}]}
{"smiles": "CC(C)C[C@H](NC(=O)OC(C)(C)C)C(=O)NC(Cc1c[nH]c2ccccc12)C(=O)NCCC(=O)O", "note": "(single isomer, unassigned)", "values": [{"measurement": "pIC50", "setting": "Endothelin-1 receptor [2]", "result": 6.38}, {"measurement": "IC50 max", "setting": "Endothelin-1 receptor [3]", "result": 270, "unit": "nM"}]}
{"smiles": "CC(C)C[C@H](NC(=O)N1CCCCC1)C(=O)NC(Cc1c[nH]c2ccccc12)C(=O)NCCC(=O)O", "note": "(single isomer, unassigned)", "values": [{"measurement": "IC50 max", "setting": "Endothelin-1 receptor [3]", "result": 81, "unit": "nM"}]}
{"smiles": "CC(C)C[C@H](NC(=O)N(CCO)C(C)(C)C)C(=O)NC(Cc1c[nH]c2ccccc12)C(=O)NCCC(=O)O", "note": "(single isomer, unassigned)", "values": [{"measurement": "IC50 max", "setting": "Endothelin-1 receptor [3]", "result": 53, "unit": "nM"}]}
{"smiles": "CC(C)C[C@H](NC(=O)N1CCCC1)C(=O)NC(Cc1c[nH]c2ccccc12)C(=O)NCCC(=O)O", "note": "(single isomer, unassigned)", "values": [{"measurement": "IC50 max", "setting": "Endothelin-1 receptor [3]", "result": 310, "unit": "nM"}]}
{"smiles": "CC(C)C[C@H](NC(=O)Cc1cccs1)C(=O)NC(Cc1c[nH]c2ccccc12)C(=O)NCCC(=O)O", "note": "(single isomer, unassigned)", "values": [{"measurement": "pIC50", "setting": "Endothelin-1 receptor [2]", "result": 6.27}, {"measurement": "IC50 max", "setting": "Endothelin-1 receptor [3]", "result": 420, "unit": "nM"}]}
{"smiles": "CC(C)C[C@H](NC(=O)N1CCCCCCCCC1)C(=O)NC(Cc1c[nH]c2ccccc12)C(=O)NCCC(=O)O", "note": "(single isomer, unassigned)", "values": [{"measurement": "IC50 max", "setting": "Endothelin-1 receptor [3]", "result": 55, "unit": "nM"}]}
{"smiles": "CC(C)C[C@H](NC(=O)CC(C)(C)C)C(=O)NC(Cc1c[nH]c2ccccc12)C(=O)NCCC(=O)O", "note": "(single isomer, unassigned)", "values": [{"measurement": "pIC50", "setting": "Endothelin-1 receptor [2]", "result": 5.17}]}
{"smiles": "Cc1cccc(NC(=O)N[C@@H](CC(C)C)C(=O)NC(Cc2c[nH]c3ccccc23)C(=O)NCCC(=O)O)c1", "note": "(single isomer, unassigned)", "values": [{"measurement": "pIC50", "setting": "Endothelin-1 receptor [2]", "result": 5.68}]}
{"smiles": "CC(C)C[C@H](NC(=O)N1C(C)CCCC1C)C(=O)NC(Cc1c[nH]c2ccccc12)C(=O)NCCC(=O)O", "note": "(single isomer, unassigned)", "values": [{"measurement": "IC50 max", "setting": "Endothelin-1 receptor [3]", "result": 51, "unit": "nM"}]}
{"smiles": "CC(C)C[C@H](NC(=O)NCc1ccccc1)C(=O)NC(Cc1c[nH]c2ccccc12)C(=O)NCCC(=O)O", "note": "(single isomer, unassigned)", "values": [{"measurement": "pIC50", "setting": "Endothelin-1 receptor [2]", "result": 5.49}]}
{"smiles": "CC(C)C[C@H](NC(=O)N1CCC(C)CC1)C(=O)NC(Cc1c[nH]c2ccccc12)C(=O)NCCC(=O)O", "note": "(single isomer, unassigned)", "values": [{"measurement": "IC50 max", "setting": "Endothelin-1 receptor [3]", "result": 580, "unit": "nM"}]}
{"smiles": "CC(C)CC(=O)N[C@@H](CC(C)C)C(=O)NC(Cc1c[nH]c2ccccc12)C(=O)NCCC(=O)O", "note": "(single isomer, unassigned)", "values": [{"measurement": "pIC50", "setting": "Endothelin-1 receptor [1]", "result": 5.41}]}
{"smiles": "CC(C)C[C@H](NC(=O)CC1CCCC1)C(=O)NC(Cc1c[nH]c2ccccc12)C(=O)NCCC(=O)O", "note": "(single isomer, unassigned)", "values": [{"measurement": "pIC50", "setting": "Endothelin-1 receptor [2]", "result": 6.01}, {"measurement": "IC50 max", "setting": "Endothelin-1 receptor [3]", "result": 620, "unit": "nM"}]}
{"smiles": "CC(C)C[C@H](NC(=O)NC(C)(C)C)C(=O)NC(Cc1c[nH]c2ccccc12)C(=O)NCCC(=O)O", "note": "(single isomer, unassigned)", "values": [{"measurement": "pIC50", "setting": "Endothelin-1 receptor [2]", "result": 6.64}, {"measurement": "IC50 max", "setting": "Endothelin-1 receptor [3]", "result": 150, "unit": "nM"}]}
{"smiles": "CC(C)C[C@H](NC(=O)N1CCc2ccccc2C1)C(=O)NC(Cc1c[nH]c2ccccc12)C(=O)NCCC(=O)O", "note": "(single isomer, unassigned)", "values": [{"measurement": "IC50 max", "setting": "Endothelin-1 receptor [3]", "result": 530, "unit": "nM"}]}
{"smiles": "CC(C)C[C@H](NC(=O)N1CCCCCC1)C(=O)NC(Cc1c[nH]c2ccccc12)C(=O)NCCC(=O)O", "note": "(single isomer, unassigned)", "values": [{"measurement": "Kb", "setting": "Endothelin-1 receptor [4]", "result": 60.3, "unit": "nM"}, {"measurement": "IC50 max", "setting": "Endothelin-1 receptor [3]", "result": 61, "unit": "nM"}]}
{"smiles": "CC(C)C[C@H](NC(=O)NC12CC3CC(CC(C3)C1)C2)C(=O)NC(Cc1c[nH]c2ccccc12)C(=O)NCCC(=O)O", "note": "(single isomer, unassigned)", "values": [{"measurement": "IC50 max", "setting": "Endothelin-1 receptor [3]", "result": 330, "unit": "nM"}]}
{"smiles": "CC(C)C[C@H](NC(=O)Nc1cccc(Cl)c1)C(=O)NC(Cc1c[nH]c2ccccc12)C(=O)NCCC(=O)O", "note": "(single isomer, unassigned)", "values": [{"measurement": "pIC50", "setting": "Endothelin-1 receptor [2]", "result": 5.68}]}
{"smiles": "CC(C)C[C@H](NC(=O)N(C(C)C)C(C)C)C(=O)NC(Cc1c[nH]c2ccccc12)C(=O)NCCC(=O)O", "note": "(single isomer, unassigned)", "values": [{"measurement": "IC50 max", "setting": "Endothelin-1 receptor [3]", "result": 57, "unit": "nM"}]}
{"smiles": "CC(C)C[C@H](NC(=O)NCC(C)(C)C)C(=O)NC(Cc1c[nH]c2ccccc12)C(=O)NCCC(=O)O", "note": "(single isomer, unassigned)", "values": [{"measurement": "IC50 max", "setting": "Endothelin-1 receptor [3]", "result": 560, "unit": "nM"}]}
{"smiles": "CC(C)C[C@H](NC(=O)N1C(C)(C)CCCC1(C)C)C(=O)NC(Cc1c[nH]c2ccccc12)C(=O)NCCC(=O)O", "note": "(single isomer, unassigned)", "values": [{"measurement": "IC50 max", "setting": "Endothelin-1 receptor [3]", "result": 190, "unit": "nM"}]}
